Results from patent US20210403860A1 (priority 2018, published 2021).
Where “and” joins values, the source holds several entries; their conditions need not be identical. Equal entries are not always repeated. Where two headings read alike, the source gives them in different places.

Key:
Ca. L. asiaticus [1] = conditions: cited from earlier work
Ca. L. asiaticus [2] = format: cell-based; conditions: 10 mM glucose and 100 μg/ml amikacin
[3] = test system: Lysinibacillus mangiferihumi; format: cell-based
Ca. L. asiaticus [4] = format: cell-based, Candidatus Liberibacter asiaticus (strain psy62); conditions: for fold change in Ca. L. asiaticus GE: 7 days
[5] = test system: Flavobacterium acidificum; format: cell-based
Paenibacillus silvae = format: cell-based
Comamonas terrigena = format: cell-based
Clostridium argentinense = format: cell-based
Bacillus cereus [6] = format: cell-based
Brevibacillus gelatini = format: cell-based
Pseudomonas putida = format: cell-based
Pantoea cypripedii = format: cell-based
[7] = test system: Stenotrophomonas bentonitica; format: cell-based
Bacillus cereus [8] = conditions: cited from earlier work
Pseudomonadaceae = format: cell-based
Bacillaceae = format: cell-based

NCC[C@H](O)C(=O)N[C@@H]1C[C@H](N)[C@@H](O[C@H]2O[C@H](CN)[C@@H](O)[C@H](O)[C@H]2O)[C@H](O)[C@H]1O[C@H]1O[C@H](CO)[C@@H](O)[C@H](N)[C@H]1O [amikacin]
activity against / sensitivity of Ca. L. asiaticus (Ca. L. asiaticus [1]): does not appear to be sensitive | Ca. L. asiaticus GE, day 3 (Ca. L. asiaticus [2]; 10% O2 (FIG. 13)): 1.15×10^5±2.8×10^4 GE | fold potentiation in Ca. L. asiaticus DNA content vs glucose alone (Ca. L. asiaticus [2]; three days): 3.03 fold | overall fold increase in GE compared to starting material (d0) (Ca. L. asiaticus [2]; three days): 11.1 fold

C[C@H]1O[C@H](O[C@H]2[C@H](O)[C@@H](O)[C@@H](O)[C@H](O)[C@@H]2O)[C@@H](N)C[C@@H]1NC(=N)C(=O)O [kasugamycin]
proportion of OTU 4 [3]: 0.000 | enhancement of Ca. L. asiaticus growth (Ca. L. asiaticus [4]; kasugamycin treatment): did not enhance | proportion of OTU 10 [5]: 0.056 | proportion of OTU 8 (Paenibacillus silvae): 0.000 | proportion of OTU 6 (Comamonas terrigena): 0.000 | proportion of OTU 5 (Clostridium argentinense; Kag 0.25 μg/ml): 0.030 | proportion of OTU 3 (Bacillus cereus [6]): 0.001 | proportion of OTU 9 (Brevibacillus gelatini): 0.001 | proportion of OTU 1 (Pseudomonas putida): 0.599 | proportion of OTU 7 (Pantoea cypripedii): 0.005 | proportion of OTU 2 [7]: 0.136

[H]/N=C(/N)N[C@H]1[C@H](O)[C@@H](O)[C@H](O[C@@H]2O[C@@H](C)[C@](O)(C=O)[C@H]2O[C@@H]2O[C@@H](CO)[C@H](O)[C@@H](O)[C@@H]2NC)[C@@H](N/C(N)=N\[H])[C@@H]1O [streptomycin]
proportion of OTU 4 [3]: 0.000 | concentration sub-inhibitory to Bacillus cereus (Bacillus cereus [8]): < 2.9 µg/mL | decrease of proportion of Pseudomonadaceae compared to non-antibiotic samples (Pseudomonadaceae): 5.5 times and 9.8 times | fold change in Ca. L. asiaticus GE (Ca. L. asiaticus [4]; 0.02 μg/ml streptomycin, vs non-antibiotic control): 5.56±0.15 fold and ~6 fold | Ca. L. asiaticus growth compared to untreated cultures (Ca. L. asiaticus [4]; streptomycin >0.5 μg/ml): reduced | proportion of OTU 10 [5]: 0.000 | proportion of OTU 8 (Paenibacillus silvae): 0.000 | proportion of OTU 5 (Clostridium argentinense; Str 0.02 μg/ml): 0.002 | proportion of OTU 5 (Clostridium argentinense; Str 0.05 μg/ml): 0.007 | proportion of OTU 5 (Clostridium argentinense; Str 0.5 μg/ml): 0.154 | proportion of OTU 5 (Clostridium argentinense; Str 1.00 μg/ml): 0.131 | proportion of OTU 5 (Clostridium argentinense; Str 2.00 μg/ml): 0.104

CN[C@H](CC(C)C)C(=O)N[C@H]1C(=O)N[C@@H](CC(N)=O)C(=O)N[C@H]2C(=O)N[C@H]3C(=O)N[C@H](C(=O)N[C@H](C(=O)O)c4cc(O)cc(O)c4-c4cc3ccc4O)[C@H](O)c3ccc(c(Cl)c3)Oc3cc2cc(c3O[C@@H]2O[C@H](CO)[C@@H](O)[C@H](O)[C@H]2O[C@H]2C[C@](C)(N)[C@H](O)[C@H](C)O2)Oc2ccc(cc2Cl)[C@H]1O [vancomycin]
fold change in Ca. L. asiaticus GE (Ca. L. asiaticus [4]; 50 μg/ml vancomycin, vs non-antibiotic control): 7.35±0.27 fold | proportion of OTU 8 (Paenibacillus silvae): 0.000 | proportion of OTU 5 (Clostridium argentinense; Van 25 μg/ml): 0.120 | proportion of OTU 5 (Clostridium argentinense; Van 35 μg/ml): 0.101 | proportion of OTU 5 (Clostridium argentinense; Van 50 μg/ml): 0.071 | proportion of OTU 5 (Clostridium argentinense; Van 75 μg/ml): 0.039 | proportion of OTU 5 (Clostridium argentinense; Van 100 μg/ml): 0.004 | proportion of OTU 9 (Brevibacillus gelatini): 0.000 | proportion of OTU 1 (Pseudomonas putida): 0.479 and 0.469 and 0.398 and 0.318 and 0.527

polymyxin B
proportion of OTU 4 [3]: 0.000 | concentration sub-inhibitory to Bacillus cereus (Bacillus cereus [8]): < 0.65 µg/mL | decrease of proportion of Pseudomonadaceae compared to non-antibiotic samples (Pseudomonadaceae): 30.5 times | fold change in Ca. L. asiaticus GE (Ca. L. asiaticus [4]; 2 μg/ml polymyxin B, vs non-antibiotic control): 2.28±0.15 fold | fold change in Ca. L. asiaticus GE (Ca. L. asiaticus [4]; 4 μg/ml polymyxin B, vs non-antibiotic control): 4.54±0.83 fold | fold change in Ca. L. asiaticus GE (Ca. L. asiaticus [4]; <1 μg/ml polymyxin B, vs untreated cultures): 0.03±0.13 fold | proportion of OTU 8 (Paenibacillus silvae): 0.000 | activity against / sensitivity of Ca. L. asiaticus (Ca. L. asiaticus [1]): not active | proportion of OTU 5 (Clostridium argentinense; Pmb 0.5 μg/ml): 0.194 | proportion of OTU 5 (Clostridium argentinense; Pmb 2 μg/ml): 0.001 | proportion of OTU 5 (Clostridium argentinense; Pmb 4 μg/ml): 0.011 | reads that were Bacillaceae members (Bacillaceae): 70.7%
